row,Compound,melting point
1,CCN(c1ccc(Cl)cc1C#N)S(=O)(=O)c1ccc(C)cc1,138 to 140 °C
2,O=[N+]([O-])O[C@H]1COc2c(O)cccc2C1,129 to 130 °C
3,CCOC(=O)c1ccc(N=C(Nc2ccc(C(=O)OCC)cc2)c2ccccc2)cc1,170 to 172 °C
4,Cc1cc2c(s1)CCCC1CC(=O)N(c3ccc(Cl)cc3)N=C21 (stereo unspecified),119 to 121 °C
5,C=C(CN(C)C)C(O)c1ncc2c(c1O)COC2C1CCCCC1 (stereo unspecified),180 to 184 °C
6,COc1ccc2c(c1)C1=C(SCC3(CCN(C(=O)c4cccc(Cl)c4)CC3)O1)C(=O)C2=O,125 to 127 °C
7,CCCCCCC(C)Oc1ccc(-c2ccc(O)cc2)cc1F (stereo unspecified),65.2 to 66.7 °C
8,COC(=O)c1ccc([N+](=O)[O-])cc1C,73.6 °C
9,COC(=O)CCOc1ccc(CNC(=O)[C@@H]2Cc3ccccc3N2S(=O)(=O)c2ccc(C(C)(C)C)cc2)cc1,50 to 52 °C
10,CC(=O)N(O)C(C)c1csc2ccccc12 (stereo unspecified),123 to 125 °C
11,Cc1n[nH]c2cc(-c3ccc4nnn(Cc5ccc6ncccc6c5)c4n3)ccc12,136 to 137 °C
12,O=C1CC(c2ccc(Cl)cc2)CC(=O)N1c1ccncc1,204 to 206 °C
13,Cc1sc(N2CCOCC2)nc1CCl,110 to 111 °C
14,O=C(c1ccccc1)c1c[nH]c(=O)[nH]1,329 to 330 °C
15,C=CC(=O)Oc1ccc(-c2cccc(F)c2F)cc1,88.4 to 90 °C
16,Cc1oc(-c2ccc(C(F)(F)F)cc2)cc1COc1cccc(C=O)c1,85 to 86 °C
17,Cc1ccc(S(=O)(=O)OCCN(c2ccc(OC(F)(F)F)cc2)S(=O)(=O)c2ccc(C)cc2)cc1,88 °C
18,CN(CCOc1ccc(C=C2SC(=O)NC2=O)cc1)c1ncccn1,189 to 190 °C
19,Cc1ccccc1C1CC(=O)c2c(C)n[nH]c2C1 (stereo unspecified),205 to 207 °C
20,COc1nc(C)c(N2CCCn3c2nc2c(Cl)ccc(C(O)(C4CC4)C4CC4)c23)c(C)n1,220 to 221 °C
21,COc1cccc(-c2csc(-c3cccc([N+](=O)[O-])c3)n2)c1,122 to 123 °C
22,O=C1c2ccccc2C(=O)N1c1ccccc1CSc1nccn1-c1ccncc1,145 to 147 °C
23,Cc1[nH]c(=O)c(C#N)cc1C(=O)c1ccncc1,> 305 °C
24,O=c1cc(-c2c(F)cccc2F)[nH]c(=O)n1-c1ccc(Cl)c(Cl)c1,256 °C
25,O=C(N[C@H](Cc1ccc(C(F)(F)F)cc1)[C@@H](O)c1ccc(F)cc1)c1cc(C(F)(F)F)cc(C(F)(F)F)c1 (racemic),150 to 151 °C
26,FC(F)(F)C(F)(F)C(F)(F)c1nc(-c2ccc(OCCCn3ccnc3)cc2)no1,60 to 60.5 °C

row,Compound,melting point
1,CC(=C1SC(=O)NC1=O)c1ccc(OCCOc2c(-c3ccc(F)c(F)c3)n(C)c3ccc(F)cc3c2=O)c(Cl)c1,215 to 218 °C
2,FC(F)c1cccc(C#CCCn2nc3ccccc3n2)n1,102 to 103 °C
3,Cc1c(Cl)cc(C(=O)C=[N+]=[N-])cc1S(N)(=O)=O,174 to 176 °C
4,N#Cc1ccc(CCC(N)=O)cc1,220 °C
5,CC(C)(C)OC(=O)NCc1ccc(-n2c(-c3cccnc3N)nc3cc(Br)cnc32)cc1,129 to 131 °C
6,Oc1ccc2c(c1)COc1c-2cc2ccc(O)cc2c1-c1ccccc1Cl,220 to 222 °C
7,CCCC#Cc1cc(Cl)cc2c1OC(C(F)(F)F)C(C(=O)O)=C2 (stereo unspecified),168 to 171 °C
8,COC(=O)CCCNC(=O)C(COS(C)(=O)=O)NS(=O)(=O)c1ccc(Cl)cc1 (racemic),95 to 99 °C
9,CC(=O)C(C)OC(=O)CC[C@H]1NC(=O)[C@@H]1N1C(=O)c2ccccc2C1=O (stereo partly specified),135 to 145 °C
10,CCOC(=O)c1cc2c(C=O)ccc(OCc3ccccc3)c2[nH]1,131 to 132 °C
11,CNC(N)=Nc1nc(-c2cccc(CNC(C)=O)n2)cs1,181 °C
12,O=C([C@H]1CC[C@H](Nc2nccc(-n3ncc4ccccc43)n2)CC1)N1CCOCC1,191 to 192 °C
13,CC(O)(c1ccc(Cl)cc1)C1CCNCC1 (stereo unspecified),178 to 180 °C
14,c1ccc(OCc2ccc3ccccc3n2)c(OCCCc2nnn[nH]2)c1,137 to 140 °C
15,CN(C)CC1(C2(O)CCCCC2)Cc2cc3c(cc21)N(S(C)(=O)=O)CC3 (stereo unspecified),156 to 158 °C
16,O=C(NCCOc1ccc(-c2noc(=O)[nH]2)cc1)C1Cc2ccccc2N1S(=O)(=O)c1ccc(-c2cccc(C(F)(F)F)c2)cc1 (stereo unspecified),123 to 130 °C
17,CCCn1nc(C(C)C)c(C(=O)OCOC(=O)C(C)(C)C)c1Cc1ccc(-c2ccccc2-c2nnn(C(c3ccccc3)(c3ccccc3)c3ccccc3)n2)cc1,128 to 130 °C
18,CCCCCCOc1ccc(NS(=O)(=O)c2ccc(N3CCNC3=O)cc2)cc1,225 to 226 °C
19,COC(=O)COc1ccc2cc(-c3cnc(Cc4ccccc4)o3)ccc2c1,236 to 238 °C
20,CCOc1cccc(C(C)CC(=O)Nc2sc3c(c2C#N)CCNC3)c1 (racemic),178 to 180 °C
21,CC(=O)OC1CSC(Oc2ccc(-c3ccnc(F)c3)nc2)C(OC(C)=O)C1OC(C)=O (stereo unspecified),179 °C
22,COc1ccc2c(c1)C1=C(SCC3(CCNCC3)O1)C(=O)C2=O,224 to 226 °C
23,Cn1cc(C(=O)O)c([N+](=O)[O-])n1,185 to 187 °C
24,COC(=O)c1ccc(-c2cc[nH]n2)cc1Cl,130 to 131 °C
25,O=C(O)c1ccc(-c2nnn[nH]2)nc1,257 to 259 °C
26,O=C/C=C/c1cc2ccccc2[nH]1,203 to 204 °C

row,Compound,melting point
1,O=C(O)CN1C(=O)C=CC1=O,110 °C
2,CON(C)C(=O)NC(CSC(C)=O)Cc1ccccc1 (stereo unspecified),68 to 70 °C
3,ON=C(CCC(CN1CCN(c2ccccn2)CC1)C(=NO)c1ccccc1)c1ccccc1 (stereo unspecified),75 to 78 °C
4,O=c1oc(-c2ccc([N+](=O)[O-])cc2)nn1-c1ccc(C(F)(F)F)cc1,160 to 163 °C
5,CCCOc1ccccc1-c1nc2nc(N(CCC)CCC)ncc2c(=O)[nH]1,123 to 124 °C
6,CCC(CC)n1cc(Cl)nc(N2CCc3cc(Cl)cc(Cl)c32)c1=O,168 to 170 °C
7,c1cc(OCC2CO2)c2cnsc2c1 (stereo unspecified),90 to 91 °C
8,CS(=O)(=O)Nc1cc2occ(C(=O)Nc3nnn[nH]3)c(=O)c2cc1Oc1ccccc1,> 250 °C
9,CCCS(=O)(=O)NCC1Cc2ccc(C3=NNC(=O)CC3)cc2C1 (stereo unspecified),158 to 159 °C
10,COc1cc2ncnc(N3CCC(C(C)CN4CCCS4(=O)=O)C(O)C3)c2cc1OC (stereo unspecified),173 to 174 °C
11,C=CCn1c(=O)c2c(nc(/C=C/c3cc(OC)c(OC(=O)c4ccccc4)c(OC)c3)n2C)n(CC=C)c1=O,179 to 180 °C
12,N#Cc1c(-c2ccccc2)cc(Cl)nc1Cl,167 to 169 °C
13,Cc1nn(-c2cccnc2)cc1NCC1CC1,73 to 75 °C
14,O=C(Nc1ccc(O)cc1)OCc1ccccc1,153 to 154 °C
15,Cc1cc(C)cc(P(=O)(O)c2cc(C)cc(C)c2)c1,256 to 261 °C
16,Nc1cccc(-c2ccc(CCN3CCN(C4CCc5ccccc5C4)CC3)cc2)n1 (stereo unspecified),> 220 °C
17,CCCCCCCCC(O)CNCCNCC(O)CCCCCCCC (stereo unspecified),140 to 146 °C
18,CCS(=O)(=O)N[C@H](C(=O)NCc1ccc(OCc2ccccc2)c(OC)c1)C(C)C,141 to 152 °C
19,CCCC(CCC)n1c(CC)nc2[nH]c(=O)n(C)c(=O)c21,152 to 153 °C
20,O=C1OC(Cc2ccccc2)CN1C(=O)c1ccccc1 (stereo unspecified),109 to 110 °C
21,COC(=O)C1C(=O)Nc2cccc(C(F)(F)F)c2CC1c1ccc(OC)cc1 (stereo unspecified),214 to 216 °C
22,C#CCOCCn1cnc2c(N)nc3ccccc3c21,225 to 227 °C
23,CC1(C)Cc2c(F)cccc2C(c2cnc3ccccc3c2)=N1,97 to 100 °C
24,Cc1ccc(-n2c3c(c(=O)c4cccnc42)CCO3)cc1,246 to 248 °C
25,COc1ccc2c(c1)C13CCN(C)C(C2)C1CCC(=O)C3 (stereo unspecified),187 to 188 °C
26,COC(=O)CCc1oc(Sc2ccc(O)cc2)nc1-c1ccccc1,157 to 158 °C

row,Compound,melting point
1,CC(NC(=O)Cc1cc(F)cc(F)c1)C(=O)NC1C(=O)NC(c2cccnc2)c2ccccc21 (stereo unspecified),100 to 120 °C
2,CON=C(C#CCN1CCOCC1)C(=O)OC,43 to 45 °C
3,CN(C)Cc1ccc(-c2cc3c(Nc4ccc(OCc5ccccc5)cc4)ncnc3[nH]2)cc1,272 to 274 °C
4,CNCCCn1cc2c(C3C(=O)Nc4ccc(Br)cc43)ncnc2n1 (stereo unspecified),240 to 243 °C
5,COC(=O)c1cc(C(=O)O)nn1C,175 °C
6,O=c1nc(Nc2ccc(I)cc2)sc2ncccc12,263 to 264 °C
7,CC(C)OCCNc1ccc(C(=O)N2CCN(CCc3ccc(Cl)cc3)CC2)cc1,130 to 132 °C
8,Clc1ccccc1C=C(Cn1cncn1)C1(Cl)CC1,82 to 85 °C
9,COc1cc2c(Nc3ccc(Cl)cc3F)ncnc2cc1OCCN1C(=O)CCCC1=O,202 to 203 °C
10,Cn1cc(-c2ccc(C(=O)O)cn2)cn1,262 to 264 °C
11,O=C(NC1CCOCC1)c1ccc(-c2cc(-c3c[nH]nc3-c3ccccn3)ccn2)cc1,248 °C
12,COc1cc2c(cc1OC)C1=NCCN1C(/C=C(\O)c1cccnc1)=N2,275 °C
13,CCCOc1n[nH]c(=O)n1C1CC1,105 to 106 °C
14,Nc1cc(-c2ccco2)ccc1Nc1cccc(-n2cccc2)c1,163 to 164 °C
15,C=C(C)c1ccc2c(c1)Cc1ccccc1O2,62 to 64 °C
16,CC(C)(OCc1nn(Cc2ccccc2)c2ccccc12)C(=O)NNC(N)=O,174 to 175 °C
17,CON=C(C(=O)O)c1csnn1,110 to 113 °C
18,O=C(O)c1ccc(-n2nc(-c3ccccc3O)nc2-c2ccccc2O)cc1,255 to 262 °C
19,Cc1cc(-c2ccc(Cl)cc2)nc2c(-c3nc(-c4ccc(S(N)(=O)=O)s4)no3)cnn12,253 °C
20,CCCSc1ccccc1S(N)(=O)=O,58 to 64 °C
21,CCC1c2cccn2-c2ccc(F)cc2N1S(=O)(=O)c1ccc(O)cc1 (stereo unspecified),150 to 152 °C
22,NS(=O)(=O)c1cc2cc3c(cc2n1S(=O)(=O)c1ccccc1)OCO3,229 to 232 °C
23,O=C(Nc1cccc(-c2c(-c3ccccc3)cnc3c(C(F)(F)F)cccc23)c1)Nc1ccccc1Cl,192 to 195 °C

# Source: a melting point compilation (Tetko et al.; mined from patent text by program, amines drawn as free bases though some values may be those of a salt)
